IC50, inhibition and inhibition in vivo data for 25 compounds are collected here from ChEMBL document CHEMBL1133916, “The discovery of anthranilic acid-based MMP inhibitors. Part 2: SAR of the 5-position and P1(1) groups” (Bioorg Med Chem Lett, 2001).

Test [1] addresses T1, Disintegrin and metalloproteinase domain-containing protein 17 (Homo sapiens, UniProt P78536). Kind of test: In vitro inhibition of TNF-alpha converting enzyme (TACE).
Test [2] addresses T2, Collagenase 3 (Homo sapiens, UniProt P45452).
For test [3], the target named is T3, Matrix metalloproteinase-9 (Homo sapiens, UniProt P14780). Put plainly: In vitro ability to inhibit matrix metalloprotease-9.
T3 sequence (P14780 whole entry): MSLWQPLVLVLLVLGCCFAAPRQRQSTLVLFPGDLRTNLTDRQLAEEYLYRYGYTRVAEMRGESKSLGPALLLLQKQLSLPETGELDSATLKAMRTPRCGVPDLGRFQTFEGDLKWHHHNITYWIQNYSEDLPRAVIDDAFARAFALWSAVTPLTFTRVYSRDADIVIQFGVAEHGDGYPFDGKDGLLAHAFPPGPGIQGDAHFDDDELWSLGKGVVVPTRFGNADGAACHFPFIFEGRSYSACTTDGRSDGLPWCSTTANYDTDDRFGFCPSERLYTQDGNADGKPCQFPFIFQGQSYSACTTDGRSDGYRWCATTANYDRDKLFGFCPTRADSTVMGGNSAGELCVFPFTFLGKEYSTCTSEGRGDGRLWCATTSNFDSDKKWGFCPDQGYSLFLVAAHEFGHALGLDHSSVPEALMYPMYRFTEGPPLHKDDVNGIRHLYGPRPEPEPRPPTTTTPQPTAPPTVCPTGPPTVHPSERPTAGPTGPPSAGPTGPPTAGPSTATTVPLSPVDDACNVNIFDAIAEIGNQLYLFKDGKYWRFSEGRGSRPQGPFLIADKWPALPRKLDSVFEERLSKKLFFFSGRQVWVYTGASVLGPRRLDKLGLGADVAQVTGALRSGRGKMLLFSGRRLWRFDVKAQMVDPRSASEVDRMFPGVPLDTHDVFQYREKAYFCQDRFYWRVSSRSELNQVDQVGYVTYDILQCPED
The target in the next test is T4, Interstitial collagenase (Homo sapiens, UniProt P03956).
T4 sequence (P03956 whole entry): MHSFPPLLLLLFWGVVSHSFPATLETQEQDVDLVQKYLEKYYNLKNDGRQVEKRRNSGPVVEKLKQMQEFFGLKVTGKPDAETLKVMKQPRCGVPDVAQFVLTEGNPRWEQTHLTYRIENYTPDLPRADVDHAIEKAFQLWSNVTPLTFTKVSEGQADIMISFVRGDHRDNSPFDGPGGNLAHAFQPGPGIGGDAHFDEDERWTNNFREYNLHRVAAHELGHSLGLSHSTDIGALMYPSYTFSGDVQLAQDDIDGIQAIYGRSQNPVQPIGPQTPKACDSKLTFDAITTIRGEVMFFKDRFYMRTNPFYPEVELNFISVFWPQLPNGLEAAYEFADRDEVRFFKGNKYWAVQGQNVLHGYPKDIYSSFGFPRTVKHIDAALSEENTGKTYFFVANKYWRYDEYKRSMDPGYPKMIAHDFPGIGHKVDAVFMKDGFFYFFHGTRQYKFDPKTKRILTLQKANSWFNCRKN
Kind of test: In vitro inhibition of Matrix metalloprotease-1.

For test [4], the target named is T5, Interstitial collagenase (Homo sapiens) (UniProt P03956).
T5 sequence (whole entry): T4 sequence (P03956 whole entry)
Put plainly: Inhibition of Matrix metalloprotease-1 at 10 uM.

Test [5] addresses T5, Interstitial collagenase (Homo sapiens). Kind of test: Inhibition of Matrix metalloprotease-1 at 1 uM.
The target of test [6] is T1, Disintegrin and metalloproteinase domain-containing protein 17. Kind of test: Inhibition of TNF-alpha converting enzyme (TACE) at 1 uM.
For a further test, the species on record is Bos taurus. Put plainly: Percent inhibition of cartilage degradation at 1 uM in a bovine articular cartilage explant assay. Particulars: Cartilage tissue. The class given is functional.
Test [7] deals with T3, Matrix metalloproteinase-9. Put plainly: Inhibition of Matrix metalloprotease-9 at 1 uM.
Test [8] deals with T2, Collagenase 3. Put plainly: Inhibition of matrix metalloprotease-13. Particulars: concentration not given here.
The next test concerns Rattus norvegicus. Put plainly: Percent inhibition of collagen degradation at an oral dose of 50 mg/kg/bid in an in vivo rat sponge-wrapped cartilage model. The class given is functional.

T1 sequence (P78536 whole entry, the tested form may be a part): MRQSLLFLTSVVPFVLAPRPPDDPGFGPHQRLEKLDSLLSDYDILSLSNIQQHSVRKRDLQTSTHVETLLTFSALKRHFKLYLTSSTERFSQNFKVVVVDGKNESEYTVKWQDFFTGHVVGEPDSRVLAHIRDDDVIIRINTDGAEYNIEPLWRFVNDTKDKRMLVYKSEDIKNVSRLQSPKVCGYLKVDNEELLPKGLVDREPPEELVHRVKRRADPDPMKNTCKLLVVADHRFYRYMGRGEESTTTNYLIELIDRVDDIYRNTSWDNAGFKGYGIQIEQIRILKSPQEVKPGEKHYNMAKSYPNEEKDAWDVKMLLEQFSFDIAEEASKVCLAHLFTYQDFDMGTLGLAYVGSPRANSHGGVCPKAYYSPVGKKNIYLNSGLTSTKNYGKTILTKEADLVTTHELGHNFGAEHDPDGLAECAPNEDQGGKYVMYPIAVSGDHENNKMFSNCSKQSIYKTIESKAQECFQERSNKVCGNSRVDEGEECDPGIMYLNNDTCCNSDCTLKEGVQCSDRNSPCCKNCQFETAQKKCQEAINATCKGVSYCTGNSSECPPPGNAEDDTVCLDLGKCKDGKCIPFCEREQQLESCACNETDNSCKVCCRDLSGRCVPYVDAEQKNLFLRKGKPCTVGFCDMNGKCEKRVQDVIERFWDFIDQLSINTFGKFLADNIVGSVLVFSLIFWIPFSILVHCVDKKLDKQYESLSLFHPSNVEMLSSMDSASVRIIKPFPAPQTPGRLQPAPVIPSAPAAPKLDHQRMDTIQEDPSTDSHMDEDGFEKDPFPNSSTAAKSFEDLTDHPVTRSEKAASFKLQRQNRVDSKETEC

In [1], `COc1ccc(S(=O)(=O)N(Cc2cccnc2)c2c(C)cc(C)cc2C(=O)NO)cc1` yielded an IC50 of 0.07 µM.
Turning to `COc1ccc(S(=O)(=O)N(Cc2cccnc2)c2c(C)cc(N(C)C)cc2C(=O)NO)cc1`, the IC50 came to 0.039 µM against Collagenase 3 [2], 0.002 µM in [3], 0.074 µM against Interstitial collagenase and 0.633 µM in test [1].
Regarding `Cc1cc(Br)cc(C(=O)NO)c1N(C)S(=O)(=O)c1ccc(-c2ccc(OCc3nccs3)cc2)cc1`, the IC50 was determined as 0.661 µM against Collagenase 3 [2], 0.952 µM in [3] and 0.023 µM in test [1]. The compound also registered an inhibition in test [4] of 45%.
Turning to `Cc1cc(Br)cc(C(=O)NO)c1N(C)S(=O)(=O)c1ccc(Oc2ccc(C(C)(C)C)cc2)cc1`, the IC50 was 0.044 µM at Collagenase 3 [2] and 0.125 µM in test [3]. The inhibition in [5] came to 25%; in test [6], 19%.
Regarding `COc1ccc(S(=O)(=O)N(Cc2cccnc2)c2c(C)cc(-c3cccc(C(F)(F)F)c3)cc2C(=O)NO)cc1`, in [3], inhibition was half-maximal at 0.001 µM (IC50).
In the case of `COc1ccc(S(=O)(=O)N(Cc2cccnc2)c2c(C(=O)NO)cc(C)cc2-c2ccccc2)cc1`, the IC50 at Collagenase 3 [2] worked out at 0.003 µM; in test [3] it was 0.007 µM; on Interstitial collagenase, 0.103 µM; in test [1], 0.133 µM.
Take `Cc1cc(Br)cc(C(=O)NO)c1N(Cc1ccccc1)S(=O)(=O)c1ccc(OCc2ccccc2)cc1`: the IC50 in [3] was 3.45 µM; in test [1] it was 0.285 µM. In test [4], this compound yielded an inhibition of 18%.
As to `Cc1cc(C)c(N(Cc2ccccc2)S(=O)(=O)c2ccc(OCc3ccccc3)cc2)c(C(=O)NO)c1`, the inhibition in test [5] was 25%.
In turn, `COc1ccc(S(=O)(=O)N(Cc2cccnc2)c2c(C)cccc2C(=O)NO)cc1` gave an IC50 in test [1] of 0.231 µM.
Consider `COc1ccc(S(=O)(=O)N(Cc2cccnc2)c2c(C)cc(-c3ccc4ccccc4c3)cc2C(=O)NO)cc1`, for which the IC50 at Collagenase 3 [2] came to 0.001 µM; in [3], 0.002 µM; on Interstitial collagenase, 0.745 µM; in test [1], 0.194 µM. The inhibition at 1 µM in the test listed under Bos taurus was found to be 83%.
On to `Cc1cccc(C(=O)NO)c1N(Cc1cccnc1)S(=O)(=O)c1ccc(-c2ccc3c(c2)OCO3)cc1`, for which the inhibition in test [6] is 9%; in [4], 37%; in test [7], 43%.
With `Cc1cc(Br)cc(C(=O)NO)c1N(C)S(=O)(=O)c1ccc(-c2ccc(OCc3ccsc3)cc2)cc1`, the IC50 on Collagenase 3 [2] came out at 0.142 µM; in test [3] it was 0.232 µM; on Interstitial collagenase, 4.64 µM; in [1], 0.056 µM.
As to `Cc1cc(Br)cc(C(=O)NO)c1N(C)S(=O)(=O)c1ccc(-c2ccc(OCc3cccnc3)cc2)cc1`, the inhibition on Collagenase 3 [8] was found to be 48%; in [4], 42%; in test [7], 28%. Besides, the midpoint of inhibition in [1], the IC50, lay at 0.028 µM.
As for `COc1ccc(-c2ccc(S(=O)(=O)N(Cc3cccnc3)c3c(C)cccc3C(=O)NO)cc2)cc1`, the IC50 against Collagenase 3 [2] worked out at 0.018 µM; in test [3] it was 0.152 µM; at Interstitial collagenase it was 2.27 µM. For the same compound, in test [6], the inhibition stood at 4%.
`CCN(CC)Cc1cc(C)c(N(Cc2ccccc2)S(=O)(=O)c2ccc(OC)cc2)c(C(=O)NO)c1` showed an inhibition in [6] of 44%.
On to `COc1ccc(S(=O)(=O)N(Cc2cccnc2)c2c(C)cc(Br)cc2C(=O)NO)cc1`, for which the IC50 was determined as 0.124 µM against Interstitial collagenase and 0.043 µM in test [1].
On to `Cc1cc(Br)cc(C(=O)NO)c1N(C)S(=O)(=O)c1ccc(-c2ccc(OCc3ccccc3)cc2)cc1`, for which the IC50 on Collagenase 3 [2] came to 0.163 µM; in test [3], 0.189 µM; in test [1] it was 0.057 µM. The inhibition in test [4] was determined as 57%.
Consider `Cc1cc(C)c(N(Cc2ccccc2)S(=O)(=O)c2ccc(Oc3ccccc3)cc2)c(C(=O)NO)c1`, for which the 50% inhibitory concentration (IC50) is 0.006 µM against Collagenase 3 [2], 0.004 µM in test [3] and 0.376 µM against Interstitial collagenase. Moreover, in [6], the inhibition is 37%.
Regarding `COc1ccc(S(=O)(=O)N(Cc2cccnc2)c2c(C(=O)NO)cc(C)cc2-c2ccco2)cc1`, the IC50 against Collagenase 3 [2] amounted to 0.001 µM; in test [3], 0.008 µM; against Interstitial collagenase, 0.018 µM.
`COc1ccc(S(=O)(=O)N(Cc2cccnc2)[C@@H](C(=O)NO)C(C)C)cc1` [CGS-27023A] displayed an inhibition in vivo at 50 mg/kg in the test on Rattus norvegicus of 51%. This compound gave an inhibition at 1 µM in the test listed under Bos taurus of 70%. This compound came in with an IC50 in test [1] of 0.231 µM.
For the compound `Cc1cc(C)c(N(C)S(=O)(=O)c2ccc(Sc3ccccc3)cc2)c(C(=O)NO)c1`, the IC50 at Collagenase 3 [2] was 0.003 µM; in [3] it was 0.008 µM; at Interstitial collagenase, 1.31 µM; in [1], 0.727 µM.
For the compound `COc1ccc(S(=O)(=O)N(Cc2cccnc2)c2c(C)cc(-c3ccccc3)cc2C(=O)NO)cc1`, the IC50 against Collagenase 3 [2] amounted to 0.004 µM. In addition, the inhibition at 1 µM in the test listed under Bos taurus stood at 70%.
As for `CN(c1ccccc1C(=O)NO)S(=O)(=O)c1ccc(Oc2ccncc2)cc1`, the IC50 against Collagenase 3 [2] was 0.038 µM; in [3] it was 0.153 µM. The inhibition in test [5] turned out to be 48%; in test [6] it was 22%.
For the compound `CCCCOc1ccc(S(=O)(=O)N(Cc2ccccc2)c2c(C)cc(C)cc2C(=O)NO)cc1`, the inhibition in test [5] came to 33%.
In test [6], `Cc1cccc(C(=O)NO)c1N(C)S(=O)(=O)c1ccc(Oc2ccncc2)cc1` yielded an inhibition of 32%. In test [3], this compound showed an IC50 of 0.007 µM. The same compound registered an inhibition in vivo at 50 mg/kg with Rattus norvegicus of 35%. The same compound showed an inhibition at 1 µM in the test listed under Bos taurus of 83%.
